Measured values from US6841548B2, “Pharmaceutical preparations containing estra-1,3,5(10)-triene derivatives” (Schering AG, priority 1994, dated 2005).

Assays:
ovariectomated rats [1] = test: Oral estrogenic effects: uterus weights in ovariectomated rats; format: in vivo, rat
Excerpt: (§1) The laboratory animals, adult female rats (breeder: HSD/WIN:WU) were ovariectomated on day 14. Treatment started two weeks later by a single oral application per day of the respective test substance. The dosages given for esters refer to the steroid portion of the substances. The tests were made in three groups (A, B, C) at various points in time. This is why there is a deviation in control group values. The tests of series A, B, and C can therefore be compared among each other if the values for the respective control groups are taken into account.
(§2) The procedure of allocating animals to groups was randomized. The experiment was carried out as a block test. The animals were weighed at the beginning and at the end of the experiment.
(§3) The start of treatment was defined as day 1 (=d1), treatment was finished on day 7 (=d7); the animals were killed on day 8, various organs (uteri, adrenal glands, liver) were removed, weighed and deep-frozen (−196° C.) for further examination.

ovariectomated rats [2] = test: Oral estrogenic effects: weights of adrenal glands in ovariectomated rats; format: in vivo, rat
Excerpt: as §1, §2, §3

ovariectomated rats [3] = test: Hepatic parameters: total cholesterol levels in serum, enzymatic test; format: in vivo, rat; details: for Total cholesterol levels (mean value ± standard deviation): Experiment A
Protocol: The laboratory animals, adult female rats (breeder: HSD/WIN:WU) were ovariectomated on day 14. Treatment started two weeks later by a single oral application per day of the respective test substance. The dosages given for esters refer to the steroid portion of the substances. The tests were made in three groups (A, B, C) at various points in time.
as §2, §3
(§4) Blood was taken from the retrobulbar plexus under ether anaesthesia prior to treatment (d0), and on (d4) and (d8). IGF1, angiotensin I, cholesterol and HDL cholesterol were determined in the serum obtained.
(§5) cholesterol/HDL: enzymatic tests, photometric determination, reagents by Dr Bruno Lange GmbH.

ovariectomated rats [4] = test: Hepatic parameters: serum angiotensin I, modified RIA for renin activity; format: in vivo, rat; set-up: Angiotensin I: unit not given here; details: for Angiotensin I: Experiment A; for Influence on the angiotensin I level, summary in words: dose-action relationships on days 4 and 8
Excerpt: as §1, §2, §3, §4
angiotensin: modified RIA for renin activity by Sorin Co.

ovariectomated rats [5] = test: Oral estrogen treatment: serum IGF1 (somatomedin C), RIA; format: in vivo, rat; set-up: unit not given here; details: Experiment A
Excerpt: as §1, §2, §3, §4
IGF1: RIA by bioMérieux Co.;

ovariectomated rats [6] = test: Hepatic parameters: HDL cholesterol levels in serum, enzymatic test; format: in vivo, rat; details: Experiment A
Excerpt: as §1, §2, §3, §4, §5

[7] = Experiment B, 10 μg/animal/day p.o. d1-d7
[8] = Experiment A, 0.1 μg/animal/day p.o. d1-d7
[9] = Experiment A, 1 μg/animal/day p.o. d1-d7
[10] = Experiment A, 10 μg/animal/day p.o. d1-d7
[11] = Experiment A, 100 μg/animal/day p.o. d1-d7
[12] = day 4, 0.1 μg/animal/day p.o. d1-d7
[13] = day 4, 1 μg/animal/day p.o. d1-d7
[14] = day 4, 10 μg/animal/day p.o. d1-d7
[15] = day 4, 100 μg/animal/day p.o. d1-d7
[16] = day 8, 0.1 μg/animal/day p.o. d1-d7
[17] = day 8, 1 μg/animal/day p.o. d1-d7
[18] = day 8, 10 μg/animal/day p.o. d1-d7
[19] = day 8, 100 μg/animal/day p.o. d1-d7
[20] = 100 μg/animal/day p.o. d1-d7, d 0 (prior to treatment)
[21] = 100 μg/animal/day p.o. d1-d7, d 4
[22] = 100 μg/animal/day p.o. d1-d7, d 8
[23] = Experiment C, 10 μg/animal/day p.o. d1-d7

C[C@]12CC[C@@H]3c4ccc(O)cc4CC[C@H]3[C@@H]1CCC2=O [Example E1, estrone]
Uterus weights (mean value) (ovariectomated rats [1]; [7]): 170.63 mg
Weights of adrenal glands (mean value) (ovariectomated rats [2]; [7]): 49.8 mg

C[C@]12CC[C@@H]3c4ccc(O)cc4CC[C@H]3[C@@H]1CC[C@@H]2O [Example E2, estradiol]
Uterus weights (mean value) (ovariectomated rats [1]; [8]): 123.3 mg
Uterus weights (mean value) (ovariectomated rats [1]; [9]): 128.9 mg
Uterus weights (mean value) (ovariectomated rats [1]; [10]): 130.7 mg
Uterus weights (mean value) (ovariectomated rats [1]; [11]): 285.4 mg
Uterus weights (mean value) (ovariectomated rats [1]; [7]): 182.3 mg
Effect on cholesterol levels in the blood (total and HDL), in words (ovariectomated rats [3]; all doses): did not reduce cholesterol levels in the blood
Angiotensin I (ovariectomated rats [4]; [12]): 376.2 ± 48.3
Angiotensin I (ovariectomated rats [4]; [13]): 359.8 ± 53.4
Angiotensin I (ovariectomated rats [4]; [14]): 412.8 ± 66.6
Angiotensin I (ovariectomated rats [4]; [15]): 497.7 ± 69.0
Angiotensin I (ovariectomated rats [4]; [16]): 449.5 ± 55.1
Angiotensin I (ovariectomated rats [4]; [17]): 392.9 ± 32.0
Angiotensin I (ovariectomated rats [4]; [18]): 335.5 ± 24.9
Angiotensin I (ovariectomated rats [4]; [19]): 464.3 ± 16.7
Effect on angiotensin I (AI) values, in words (ovariectomated rats [4]; at any dose throughout the experiment): no recognizable effect
Influence on the angiotensin I level, summary in words (ovariectomated rats [4]): at best has marginal stimulating influence
IGF1 (= somatomedin C) (ovariectomated rats [5]; [20]): 717.4 ± 80.8
IGF1 (= somatomedin C) (ovariectomated rats [5]; [21]): 623.6 ± 100.0
IGF1 (= somatomedin C) (ovariectomated rats [5]; [22]): 601.1 ± 108.8
Weights of adrenal glands (mean value) (ovariectomated rats [2]; [8]): 49.3 mg
Weights of adrenal glands (mean value) (ovariectomated rats [2]; [9]): 57.9 mg
Weights of adrenal glands (mean value) (ovariectomated rats [2]; [10]): 61.6 mg
Weights of adrenal glands (mean value) (ovariectomated rats [2]; [11]): 54.4 mg
Weights of adrenal glands (mean value) (ovariectomated rats [2]; [7]): 54.4 mg
HDL cholesterol levels (mean value ± standard deviation) (ovariectomated rats [6]; [12]): 49.1 ± 7.8 mg/dL
HDL cholesterol levels (mean value ± standard deviation) (ovariectomated rats [6]; [13]): 50.9 ± 6.1 mg/dL
HDL cholesterol levels (mean value ± standard deviation) (ovariectomated rats [6]; [14]): 55.0 ± 6.9 mg/dL
HDL cholesterol levels (mean value ± standard deviation) (ovariectomated rats [6]; [15]): 43.7 ± 7.6 mg/dL
HDL cholesterol levels (mean value ± standard deviation) (ovariectomated rats [6]; [16]): 51.0 ± 4.6 mg/dL
HDL cholesterol levels (mean value ± standard deviation) (ovariectomated rats [6]; [17]): 52.3 ± 4.1 mg/dL
HDL cholesterol levels (mean value ± standard deviation) (ovariectomated rats [6]; [18]): 51.5 ± 3.9 mg/dL
HDL cholesterol levels (mean value ± standard deviation) (ovariectomated rats [6]; [19]): 46.0 ± 9.2 mg/dL

C[C@]12CC[C@@H]3c4ccc(O)cc4CC[C@H]3[C@@H]1C[C@@H](O)[C@@H]2O [Example E3, estratriol]
Uterus weights (mean value) (ovariectomated rats [1]; [23]): 301.94 mg
Weights of adrenal glands (mean value) (ovariectomated rats [2]; [23]): 52.2 mg

C#C[C@]1(O)CC[C@H]2[C@@H]3CCc4cc(OS(=O)(=O)N(CC)CC)ccc4[C@H]3CC[C@@]21C [J 271, 17β-Hydroxy-19-nor-17α-pregna-1,3,5(10)-triene-20-in-3-yl N,N-diethyl-sulfamate]
Uterus weights (mean value) (ovariectomated rats [1]; [8]): 144.2 mg
Uterus weights (mean value) (ovariectomated rats [1]; [9]): 289.9 mg
Uterus weights (mean value) (ovariectomated rats [1]; [10]): 605.1 mg
Uterus weights (mean value) (ovariectomated rats [1]; [11]): 563.6 mg
Uterus weights (mean value) (ovariectomated rats [1]; [7]): 540.8 mg
Oral dose at which the effect on uterus growth has reached a plateau (ovariectomated rats [1]; oral): 0.01 mg/animal/day
Effects on uterus growth, comparison in words (ovariectomated rats [1]; oral, versus EE and estradiol): clear superiority to EE and great superiority to estradiol
Total cholesterol levels (mean value ± standard deviation) (ovariectomated rats [3]; [12]): 96.0 ± 15.0 mg/dL
Total cholesterol levels (mean value ± standard deviation) (ovariectomated rats [3]; [13]): 108.5 ± 10.3 mg/dL
Total cholesterol levels (mean value ± standard deviation) (ovariectomated rats [3]; [14]): 92.4 ± 12.1 mg/dL
Total cholesterol levels (mean value ± standard deviation) (ovariectomated rats [3]; [15]): 24.5 ± 14.4 mg/dL
Total cholesterol levels (mean value ± standard deviation) (ovariectomated rats [3]; [16]): 91.1 ± 18.3 mg/dL
Total cholesterol levels (mean value ± standard deviation) (ovariectomated rats [3]; [17]): 101.4 ± 6.3 mg/dL
Total cholesterol levels (mean value ± standard deviation) (ovariectomated rats [3]; [18]): 81.9 ± 12.6 mg/dL
Total cholesterol levels (mean value ± standard deviation) (ovariectomated rats [3]; [19]): 18.6 ± 8.3 mg/dL
Drop in total and HDL cholesterol levels in the blood, in words (ovariectomated rats [3]; highest dose, versus EE): still recognizably lower than that caused by EE
Effect on cholesterol levels in the blood (total and HDL), in words (ovariectomated rats [3]; up to 10 μg): did not reduce cholesterol levels in the blood
Angiotensin I (ovariectomated rats [4]; [12]): 380.8 ± 35.8
Angiotensin I (ovariectomated rats [4]; [13]): 383.8 ± 47.1
Angiotensin I (ovariectomated rats [4]; [14]): 435.2 ± 53.8
Angiotensin I (ovariectomated rats [4]; [15]): 734.0 ± 75.7
Angiotensin I (ovariectomated rats [4]; [16]): 462.2 ± 71.3
Angiotensin I (ovariectomated rats [4]; [17]): 425.9 ± 43.9
Angiotensin I (ovariectomated rats [4]; [18]): 373.4 ± 42.3
Angiotensin I (ovariectomated rats [4]; [19]): 668.2 ± 68.6
Effect on angiotensin I (AI) values, in words (ovariectomated rats [4]; dose of 10 μg/day): no clear effect on AI
Effect on angiotensin I (AI) values, in words (ovariectomated rats [4]; dose of 100 μg/day): increases in AI values but these are significantly lower than those observed under the influence of EE or J 824
Influence on the angiotensin I level, summary in words (ovariectomated rats [4]): clearly below those for EE
IGF1 (= somatomedin C) (ovariectomated rats [5]; [20]): 826.4 ± 96.7
IGF1 (= somatomedin C) (ovariectomated rats [5]; [21]): 593.7 ± 57.0
IGF1 (= somatomedin C) (ovariectomated rats [5]; [22]): 351.5 ± 32.6
Weights of adrenal glands (mean value) (ovariectomated rats [2]; [8]): 57.1 mg
Weights of adrenal glands (mean value) (ovariectomated rats [2]; [9]): 57.4 mg
Weights of adrenal glands (mean value) (ovariectomated rats [2]; [10]): 63.1 mg
Weights of adrenal glands (mean value) (ovariectomated rats [2]; [11]): 66.5 mg
Weights of adrenal glands (mean value) (ovariectomated rats [2]; [7]): 57.9 mg
HDL cholesterol levels (mean value ± standard deviation) (ovariectomated rats [6]; [12]): 57.6 ± 6.5 mg/dL
HDL cholesterol levels (mean value ± standard deviation) (ovariectomated rats [6]; [13]): 57.1 ± 7.1 mg/dL
HDL cholesterol levels (mean value ± standard deviation) (ovariectomated rats [6]; [14]): 54.6 ± 5.7 mg/dL
HDL cholesterol levels (mean value ± standard deviation) (ovariectomated rats [6]; [15]): 13.2 ± 14.0 mg/dL
HDL cholesterol levels (mean value ± standard deviation) (ovariectomated rats [6]; [16]): 57.3 ± 6.0 mg/dL
HDL cholesterol levels (mean value ± standard deviation) (ovariectomated rats [6]; [17]): 59.6 ± 6.8 mg/dL
HDL cholesterol levels (mean value ± standard deviation) (ovariectomated rats [6]; [18]): 49.9 ± 6.0 mg/dL
HDL cholesterol levels (mean value ± standard deviation) (ovariectomated rats [6]; [19]): 10.7 ± 8.2 mg/dL

C#CC1(O)CCC2C3CCc4cc(OS(=O)(=O)N5CCCC5)ccc4C3CCC21C (stereo not drawn) [J 272, 17β-Hydroxy-19-nor-17α-pregna-1,3,5(10)-trien-20-in-3-yl N,N-pyrrolidinosulfonate]
Uterus weights (mean value) (ovariectomated rats [1]; [7]): 620.7 mg
Weights of adrenal glands (mean value) (ovariectomated rats [2]; [7]): 57.5 mg

C#CC1(O)CCC2C3CCc4cc(OS(=O)(=O)N(C)C)ccc4C3CCC21C (stereo not drawn) [J 665, 17β-Hydroxy-19-nor-17α-pregna-1,3,5(10)-trien-20-in-3-yl N,N-dimethyl-sulfamate]
Uterus weights (mean value) (ovariectomated rats [1]; [7]): 639.48 mg
Weights of adrenal glands (mean value) (ovariectomated rats [2]; [7]): 58.0 mg

CCN(CC)S(=O)(=O)Oc1ccc2c(c1)CC[C@@H]1[C@@H]2CC[C@]2(C)C(=O)CC[C@@H]12 [J 804, Estra-1,3,5(10)-trien-17-on-3-yl N,N-diethyl-sulfamate]
Uterus weights (mean value) (ovariectomated rats [1]; [7]): 166.0 mg
Weights of adrenal glands (mean value) (ovariectomated rats [2]; [7]): 53.9 mg

CCN(CC)S(=O)(=O)Oc1ccc2c(c1)CC[C@@H]1[C@@H]2CC[C@]2(C)[C@@H](O)CC[C@@H]12 [J 981, 17β-Hydroxy-estra-1,3,5(10)-trien-3-yl N,N-diethyl-sulfamate]
Uterus weights (mean value) (ovariectomated rats [1]; [7]): 225.34 mg
melting point: 175 to 176 °C
Weights of adrenal glands (mean value) (ovariectomated rats [2]; [7]): 50.5 mg

CN(C)S(=O)(=O)Oc1ccc2c(c1)CC[C@@H]1[C@@H]2CC[C@]2(C)[C@@H](O)C[C@@H]3C[C@]312 [J 982, 17β-Hydroxy-14α,15α-methylen-estra-1,3,5(10)-trien-3-yl N,N-dimethyl-sulfamate]
Uterus weights (mean value) (ovariectomated rats [1]; [7]): 193.4 mg
Weights of adrenal glands (mean value) (ovariectomated rats [2]; [7]): 55.3 mg

CCN(CC)S(=O)(=O)Oc1ccc2c(c1)CC[C@@H]1[C@@H]2CC[C@]2(C)[C@@H](O)C[C@@H]3C[C@]312 [J 983, 17β-Hydroxy-14α,15α-methylen-estra-1,3,5(10)-trien-3-yl N,N-diethyl-sulfamate]
Uterus weights (mean value) (ovariectomated rats [1]; [7]): 348.6 mg
Weights of adrenal glands (mean value) (ovariectomated rats [2]; [7]): 53.9 mg
